Laboratory results as given in patent publication US8278469B2, “17-hydroxy-17-pentafluoroethyl-estra-4,9(10)-dien-11-aryl derivatives, method of production thereof and use thereof for the treatment of diseases” (Bayer Pharma Aktiengesellschaft, priority 2009, dated 2012).

What was measured:
[1] = target: T1, human progesterone receptor A (PR-A) (Homo sapiens, UniProt P06401); experiment: Progesterone receptor-antagonistic action in stable transfectants of SK-N-MC cells with human PR-A and MTV-LUC reporter; format: cell-based; settings: antagonistic efficacy against 0.1 nmol/l promegestone, SK-N-MC cells, 24 hours; read-out: Progesterone receptor A (PR-A) Efficacy
T1 construct: expressed in transfected cells; host or cells: SK-N-MC human neuroblastoma cells, stably transfected with pRChPR-A-neo and pMMTV-LUC
T1 sequence (P06401 1-769 isoform P06401-2): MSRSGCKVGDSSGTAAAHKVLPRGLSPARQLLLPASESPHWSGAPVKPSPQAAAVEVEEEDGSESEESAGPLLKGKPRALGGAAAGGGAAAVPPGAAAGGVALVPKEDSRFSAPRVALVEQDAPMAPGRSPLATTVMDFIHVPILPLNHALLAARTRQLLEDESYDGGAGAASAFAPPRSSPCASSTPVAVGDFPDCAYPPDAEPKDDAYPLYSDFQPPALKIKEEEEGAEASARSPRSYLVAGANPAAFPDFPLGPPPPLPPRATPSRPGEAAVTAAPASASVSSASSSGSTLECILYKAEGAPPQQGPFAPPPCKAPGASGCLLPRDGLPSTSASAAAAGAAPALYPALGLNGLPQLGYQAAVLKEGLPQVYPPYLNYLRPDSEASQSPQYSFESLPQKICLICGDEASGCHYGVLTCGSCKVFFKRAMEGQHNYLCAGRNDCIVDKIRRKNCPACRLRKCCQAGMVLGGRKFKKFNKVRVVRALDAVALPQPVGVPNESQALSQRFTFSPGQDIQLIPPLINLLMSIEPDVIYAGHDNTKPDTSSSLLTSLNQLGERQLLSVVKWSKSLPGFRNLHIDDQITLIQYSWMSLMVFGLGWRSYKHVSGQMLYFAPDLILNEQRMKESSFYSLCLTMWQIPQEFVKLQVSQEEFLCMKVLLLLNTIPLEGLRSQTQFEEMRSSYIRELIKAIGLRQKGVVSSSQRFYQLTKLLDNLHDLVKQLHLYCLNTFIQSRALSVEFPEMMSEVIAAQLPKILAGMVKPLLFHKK
Experimental: (§1) Progesterone Receptor-Antagonistic Action in Stable Transfectants of Human Neuroblastoma Cells (SK-N-MC Cells) with the Human Progesterone A or Progesterone B Receptor and an MTV-LUC Reporter Construct
(§2) SK-N-MC cells (human neuroblastoma cells), which have been stably transfected with plasmids, which express the human progesterone receptor B (pRChPR-B-neo) or the human progesterone receptor A (pRChPR-A-neo) and a reporter construct (pMMTV-LUC), were incubated for 24 hours either in the absence (negative control) or in the presence of increasing amounts of the respective test compound (0.01 nmol/l, 0.1 nmol/l, 1 nmol/l, 10 nmol/l, 100 nmol/l and 1 μmol/l), in order to determine the agonistic efficacy. As positive control of reporter gene induction, the cells were treated with the synthetic gestagen promegestone (0.01 nmol/l, 0.1 nmol/l, 1 nmol/l, 10 nmol/l, 100 nmol/l and 1 μmol/l). For determination of the antagonistic activity, the cells were treated with 0.1 nmol/l promegestone and additionally with increasing amounts of the respective test compound (0.01 nmol/l, 0.1 nmol/l, 1 nmol/l, 10 nmol/l, 100 nmol/l and 1 μmol/l). The activity of the LUC reporter gene (LUC=luciferase) was determined in the cell lysates and was measured as RLU (relative light units). All measured values are given as percentage efficacy and as EC50 or IC50 concentrations.
(§3) 11β-(4-Acetylphenyl)-20,20,21,21,21-pentafluoro-17-hydroxy-19-nor-17α-pregna-4,9-dien-3-one and 20,20,21,21,21-pentafluoro-17-hydroxy-11β-[4-(hydroxyacetyl)phenyl]-19-nor-17α-pregna-4,9-dien-3-one, very potent and therefore preferred examples from WO98/34947 and WO2008/058767, were tested as comparative compounds along with the test compound.

[2] = target: T2, human progesterone receptor B (PR-B) (Homo sapiens, UniProt P06401); experiment: Progesterone receptor-antagonistic action in stable transfectants of SK-N-MC cells with human PR-B and MTV-LUC reporter; format: cell-based; settings: antagonistic efficacy against 0.1 nmol/l promegestone, SK-N-MC cells, 24 hours; read-out: Progesterone receptor B (PR-B) Efficacy
T2 construct: expressed in transfected cells; host or cells: SK-N-MC human neuroblastoma cells, stably transfected with pRChPR-B-neo and pMMTV-LUC
T2 sequence (P06401 1-933): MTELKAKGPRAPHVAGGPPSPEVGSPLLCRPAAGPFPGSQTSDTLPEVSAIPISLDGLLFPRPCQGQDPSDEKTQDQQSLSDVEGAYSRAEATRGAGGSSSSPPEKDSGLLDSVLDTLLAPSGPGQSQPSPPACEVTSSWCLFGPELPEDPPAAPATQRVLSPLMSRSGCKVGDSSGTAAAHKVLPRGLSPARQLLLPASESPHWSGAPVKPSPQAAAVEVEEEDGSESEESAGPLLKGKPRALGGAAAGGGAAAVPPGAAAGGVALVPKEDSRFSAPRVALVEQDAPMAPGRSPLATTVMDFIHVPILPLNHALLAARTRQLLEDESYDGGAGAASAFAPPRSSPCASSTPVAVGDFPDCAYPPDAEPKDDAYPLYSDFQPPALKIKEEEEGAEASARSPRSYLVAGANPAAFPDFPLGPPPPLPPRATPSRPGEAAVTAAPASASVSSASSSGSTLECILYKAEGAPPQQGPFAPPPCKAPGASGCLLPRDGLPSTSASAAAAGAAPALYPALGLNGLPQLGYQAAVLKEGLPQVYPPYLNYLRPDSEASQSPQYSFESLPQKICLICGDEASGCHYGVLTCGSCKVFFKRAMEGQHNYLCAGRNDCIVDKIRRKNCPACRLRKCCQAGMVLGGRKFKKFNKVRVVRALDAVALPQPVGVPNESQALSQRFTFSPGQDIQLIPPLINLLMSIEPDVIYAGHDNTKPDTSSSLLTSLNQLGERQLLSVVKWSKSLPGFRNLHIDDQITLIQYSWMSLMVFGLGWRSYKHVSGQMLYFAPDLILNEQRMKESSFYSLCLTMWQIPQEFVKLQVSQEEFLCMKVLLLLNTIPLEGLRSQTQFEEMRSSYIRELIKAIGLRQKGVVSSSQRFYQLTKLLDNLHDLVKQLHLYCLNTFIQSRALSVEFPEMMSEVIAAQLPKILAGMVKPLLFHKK
Experimental: as §1, §2, §3

[3] = Metabolic stability in human liver microsomes (HLM); format: in vitro ADME; settings: HLM 0.5 mg/ml protein, 1 μM, 37° C., pH 7.4; well-stirred model, phase I reactions
Experimental: Metabolic Stability of (11β,17β)-17-hydroxy-11-[4-(methylsulphonyl)phenyl]-17-(pentafluoroethyl)estra-4,9-dien-3-one and (11β,17β)-17-hydroxy-11-[4′-(methylsulphonyl)-biphenyl-4-4-yl]-17-(pentafluoroethyl)estra-4,9-dien-3-one in Human Liver Microsomes (HLM)
Isolated human liver microsomes (HLM) were used for assessing the metabolic stability of compounds of general formula I.
Incubations were carried out with 2.4 ml of HLM solution (0.5 mg/ml protein content), 30 μl of the test compound (final concentration 1 μM) and 0.6 ml of the cofactor mixture (=NADPH-generating system of 3 IU glucose-6-phosphate dehydrogenase, 14.6 mg glucose-6-phosphate, 1.2 mg NADP) at 37° C. in 100 mM phosphate buffer at pH 7.4. Samples are taken at 6 time points (2-60 min), precipitated with an equal volume of methanol and the recovery of the test substances used in the supernatant is determined by LC-MS/MS analysis. The intrinsic clearance of the substance in the liver microsome preparation can be calculated from the half-life found for the breakdown of the substance. Based on this, together with various physiological characteristics according to the well-stirred model, it is then possible to predict a (metabolic) in vivo clearance with respect to phase I reactions. […]

| Compound | Emax [1] | Emax [2] | (metabolic) in vivo clearance in humans predicted [3] |
| --- | --- | --- | --- |
| C[C@]12C[C@H](c3ccc(-c4ccc(S(C)(=O)=O)cc4)cc3)C3=C4CCC(=O)C=C4CC[C@H]3[C@@H]1CC[C@@]2(O)C(F)(F)C(F)(F)F [Example 10, (11β,17β)-17-hydroxy-11-[4′-(methylsulphonyl)biphenyl-4-yl]-17-(pentafluoroethyl)estra-4,9-dien-3-one] | 100% | 100% | < 0.17 mL/min/kg |
| CN(C)S(=O)(=O)c1ccc([C@H]2C[C@@]3(C)[C@@H](CC[C@@]3(O)C(F)(F)C(F)(F)F)[C@@H]3CCC4=CC(=O)CCC4=C32)cc1 [Example 15, 4-[(11β,17β)-17-Hydroxy-3-oxo-17-(pentafluoroethyl)estra-4,9-dien-11-yl]-N,N-dimethylbenzene sulphonamide] | 100% | 100% |  |
